Experimental data published in patent publication US12668600B2 (Kumquat Biosciences Inc., priority 2023, dated 2026).

Key:
Assay type in all cases: biochemical
KRAS G12D = target: T1, KRAS G12D (Homo sapiens, UniProt P01116, G12D); assay: HTRF KRAS-SOS1 interaction assay, KRAS G12D; conditions: binned ≤2 μM / >2 μM, read-out: Inhibition of KRAS G12D (IC50)
T1 construct: made in house; host or cells: E. coli, e.g. BL21 (DE3)
Procedure, shortened: (§1)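 GST-tagged KRAS (WT or mutant) with anti-GST-Eu donor and His-hSOS1 with anti-6His-XL665 acceptor were combined in 5 mM HEPES pH 7.4, 150 mM NaCl, 1 mM DTT, 0.05% BSA, 0.0025% Igepal. After ~10 min, HTRF was read (ex 337, em 620/665 nm); IC50 from 665/620 ratio.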

KRAS WT = target: T2, KRAS WT (Homo sapiens, UniProt P01116); assay: HTRF KRAS-SOS1 interaction assay, wildtype KRAS; conditions: binned ≤2 μM / >2 μM, read-out: Inhibition of KRAS WT (IC50)
T2 construct: made in house; host or cells: E. coli, e.g. BL21 (DE3)
Procedure, shortened: as §1

KRAS G12S = target: T3, KRAS G12S (Homo sapiens, UniProt P01116, G12S); assay: HTRF KRAS-SOS1 interaction assay, KRAS G12S; conditions: binned ≤2 μM / >2 μM, read-out: Inhibition of KRAS G12S (IC50)
T3 construct: made in house; host or cells: E. coli, e.g. BL21 (DE3)
Procedure, shortened: as §1

KRAS G12V = target: T4, KRAS G12V (Homo sapiens, UniProt P01116, G12V); assay: HTRF KRAS-SOS1 interaction assay, KRAS G12V; conditions: binned ≤2 μM / >2 μM, read-out: Inhibition of KRAS G12V (IC50)
T4 construct: made in house; host or cells: E. coli, e.g. BL21 (DE3)
Procedure, shortened: as §1

Measured: IC50

T1 sequence (P01116 1-188 isoform P01116-2 G12D): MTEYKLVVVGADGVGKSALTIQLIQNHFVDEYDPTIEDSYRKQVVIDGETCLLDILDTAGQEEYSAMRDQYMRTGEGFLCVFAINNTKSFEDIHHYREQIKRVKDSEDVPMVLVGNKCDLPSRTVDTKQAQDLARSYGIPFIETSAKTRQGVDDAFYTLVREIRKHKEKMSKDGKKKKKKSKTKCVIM
T4 sequence (P01116 1-188 isoform P01116-2 G12V): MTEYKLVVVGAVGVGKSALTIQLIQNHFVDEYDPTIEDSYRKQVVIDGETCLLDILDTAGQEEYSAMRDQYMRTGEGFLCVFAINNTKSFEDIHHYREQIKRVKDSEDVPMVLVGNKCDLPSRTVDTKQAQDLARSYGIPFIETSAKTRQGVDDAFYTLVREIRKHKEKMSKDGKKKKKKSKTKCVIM
T2 sequence (P01116 1-188 isoform P01116-2): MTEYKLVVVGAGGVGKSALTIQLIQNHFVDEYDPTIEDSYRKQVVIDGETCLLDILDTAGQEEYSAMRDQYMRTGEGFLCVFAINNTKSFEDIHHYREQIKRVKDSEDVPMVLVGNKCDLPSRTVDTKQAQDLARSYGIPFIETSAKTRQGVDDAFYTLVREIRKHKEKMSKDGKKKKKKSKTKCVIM
T3 sequence (P01116 1-188 isoform P01116-2 G12S): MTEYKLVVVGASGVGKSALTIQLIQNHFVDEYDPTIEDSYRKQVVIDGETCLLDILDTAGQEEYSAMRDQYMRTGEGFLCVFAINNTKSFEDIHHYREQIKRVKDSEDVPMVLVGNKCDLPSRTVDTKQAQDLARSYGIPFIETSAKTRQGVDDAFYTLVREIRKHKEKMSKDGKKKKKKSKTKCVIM

C[C@H](c1cccnc1N)N1CCOc2c(Cl)c(-c3ccc(F)c4sc(N)c(C#N)c34)c(F)c3nc(OC[C@@]45CCCN4C[C@@]4(CC4(F)F)C5)nc1c23 [Compound 740, 2-amino-4-((R)-4-((R)-1-(2-aminopyridin-3-yl)ethyl)-8-chloro-2-(((1S,7a'S)-2,2-difluorodihydro-1′H,3′H-spiro[cyclopropane-1,2′-pyrrolizin]-7a′ (5′H)-yl)methoxy)-10-fluoro-5,6-dihydro-4H-[1,4]oxazepino[5,6,7-de]quinazolin-9-yl)-7-fluorobenzo[b]thiophene-3-carbonitrile]
≤ 2000 nM: all assays above

CO[C@H]1CCN(C)[C@@H]1[C@H](C)Oc1nc2c3c(c(C(F)(F)F)c(-c4ccc(F)c5sc(N)c(C#N)c45)c(F)c3n1)OCCN2[C@H](C)c1cc(Cl)cnc1N [Compound 667, 2-amino-4-(4-((R)-1-(2-amino-5-chloropyridin-3-yl)ethyl)-10-fluoro-2-((S)-1-((2R,3S)-3-methoxy-1-methylpyrrolidin-2-yl)ethoxy)-8-(trifluoromethyl)-5,6-dihydro-4H-[1,4]oxazepino[5,6,7-de]quinazolin-9-yl)-7-fluorobenzo[b]thiophene-3-carbonitrile]
≤ 2000 nM: all assays above

C[C@H](c1cc(C#N)cnc1N)N1CCOc2c(Cl)c(-c3ccc(F)c4sc(N)c(C#N)c34)c(F)c3nc(OC[C@@]45CCCN4C[C@H](F)C5)nc1c23 [Compound 873, 6-amino-5-((1R)-1-(9-(2-amino-3-cyano-7-fluorobenzo[b]thiophen-4-yl)-8-chloro-10-fluoro-2-(((2R,7aS)-2-fluorotetrahydro-1H-pyrrolizin-7a(5H)-yl)methoxy)-5,6-dihydro-4H-[1,4]oxazepino[5,6,7-de]quinazolin-4-yl)ethyl)nicotinonitrile]
≤ 2000 nM: all assays above

N#Cc1c(N)sc2c(F)ccc(-c3c(C(F)(F)F)c4c5c(nc(OCC6(CN7CCC(=CF)CC7)CC6)nc5c3F)N([C@H](CCC3CCOCC3)c3cccnc3N)CCO4)c12 [Compound 905, 2-amino-4-(4-((R)-1-(2-aminopyridin-3-yl)-3-(tetrahydro-2H-pyran-4-yl)propyl)-10-fluoro-2-((1-((4-(fluoromethylene)piperidin-1-yl)methyl)cyclopropyl)methoxy)-8-(trifluoromethyl)-5,6-dihydro-4H-[1,4]oxazepino[5,6,7-de]quinazolin-9-yl)-7-fluorobenzo[b]thiophene-3-carbonitrile]
≤ 2000 nM: all assays above

N#Cc1c(N)sc2c(F)ccc(-c3c(Cl)c4c5c(nc(OC[C@@]67CCCN6C[C@H](F)C7)nc5c3F)N([C@H](C/C=C/C(F)(F)F)c3cccnc3N)CCO4)c12 [Compound 733, 2-amino-4-(4-((R,E)-1-(2-aminopyridin-3-yl)-5,5,5-trifluoropent-3-en-1-yl)-8-chloro-10-fluoro-2-(((2R,7aS)-2-fluorotetrahydro-1H-pyrrolizin-7a(5H)-yl)methoxy)-5,6-dihydro-4H-[1,4]oxazepino[5,6,7-de]quinazolin-9-yl)-7-fluorobenzo[b]thiophene-3-carbonitrile]
≤ 2000 nM: all assays above

C[C@H](c1cc(F)cnc1N)N1CCOc2c(C(F)(F)F)c(-c3ccc(F)c4sc(N)c(C#N)c34)c(F)c3nc(OC[C@@]45CCCN4C[C@H](F)C5)nc1c23 (single isomer, unassigned) [Compound 864]
≤ 2000 nM: all assays above

Cc1c(F)c(N)cc(-c2nc3c4c(nc(O[C@@H](C)C5CCCN5C)nc4c2F)N([C@H](C)c2cccnc2N)CCO3)c1C(F)(F)F (single isomer, unassigned) [Compound 748]
≤ 2000 nM: all assays above

N#Cc1c(N)sc2c(F)ccc(-c3c(C(F)(F)F)c4c5c(nc(OC[C@@]67CCCN6C[C@@]6(CC6(F)F)C7)nc5c3F)N([C@H](CCC(F)(F)F)c3cccnc3N)CCO4)c12 [Compound 883, 2-amino-4-(4-((R)-1-(2-aminopyridin-3-yl)-4,4,4-trifluorobutyl)-2-(((1S,7a′S)-2,2-difluorodihydro-1′H,3′H-spiro[cyclopropane-1,2′-pyrrolizin]-7a′(5′H)-yl)methoxy)-10-fluoro-8-(trifluoromethyl)-5,6-dihydro-4H-[1,4]oxazepino[5,6,7-de]quinazolin-9-yl)-7-fluorobenzo[b]thiophene-3-carbonitrile]
≤ 2000 nM: all assays above

N#Cc1c(N)sc2c(F)ccc(-c3c(Cl)c4c5c(nc(OC[C@@]67CCCN6C[C@H](F)C7)nc5c3F)N(C(CCCO)c3cccnc3N)CCO4)c12 (mixture of isomers) [Compound 822, 2-amino-4-(4-(1-(2-aminopyridin-3-yl)-4-hydroxybutyl)-8-chloro-10-fluoro-2-(((2R,7aS)-2-fluorotetrahydro-1H-pyrrolizin-7a(5H)-yl)methoxy)-5,6-dihydro-4H-[1,4]oxazepino[5,6,7-de]quinazolin-9-yl)-7-fluorobenzo[b]thiophene-3-carbonitrile]
≤ 2000 nM: all assays above

N#Cc1c(N)sc2c(F)ccc(-c3c(Cl)c4c5c(nc(OC[C@@]67CCCN6C[C@H](F)C7)nc5c3F)N([C@H](C/C=C\C(F)(F)F)c3cccnc3N)CCO4)c12 [Compound 845, 2-amino-4-(4-((R,Z)-1-(2-aminopyridin-3-yl)-5,5,5-trifluoropent-3-en-1-yl)-8-chloro-10-fluoro-2-(((2R,7aS)-2-fluorotetrahydro-1H-pyrrolizin-7a(5H)-yl)methoxy)-5,6-dihydro-4H-[1,4]oxazepino[5,6,7-de]quinazolin-9-yl)-7-fluorobenzo[b]thiophene-3-carbonitrile]
≤ 2000 nM: all assays above

C[C@H](c1cc(C2CC2)cnc1N)N1CCOc2c(Cl)c(-c3ccc(F)c4sc(N)c(C#N)c34)c(F)c3nc(OC[C@@]45CCCN4C[C@H](F)C5)nc1c23 [Compound 738, 2-amino-4-(4-((R)-1-(2-amino-5-cyclopropylpyridin-3-yl)ethyl)-8-chloro-10-fluoro-2-(((2R,7aS)-2-fluorotetrahydro-1H-pyrrolizin-7a(5H)-yl)methoxy)-5,6-dihydro-4H-[1,4]oxazepino[5,6,7-de]quinazolin-9-yl)-7-fluorobenzo[b]thiophene-3-carbonitrile]
≤ 2000 nM: all assays above

C[C@H](c1cccnc1N)N1CCOc2c(C(F)(F)F)c(-c3cc(F)c(F)c4sc(N)c(C#N)c34)c(F)c3nc(OC[C@@]45CCCN4C[C@H](F)C5)nc1c23 (single isomer, unassigned) [Compound 853]
≤ 2000 nM: all assays above

C[C@H](c1cc(Cl)cnc1N)N1CCOc2c(C(F)(F)F)c(-c3ccc(F)c4sc(N)c(C#N)c34)c(F)c3nc(OCC4(CN5CCC6(CC5)CC6(F)F)CC4)nc1c23 [Compound 679, 2-amino-4-(4-((R)-1-(2-amino-5-chloropyridin-3-yl)ethyl)-2-((1-((1,1-difluoro-6-azaspiro[2.5]octan-6-yl)methyl)cyclopropyl)methoxy)-10-fluoro-8-(trifluoromethyl)-5,6-dihydro-4H-[1,4]oxazepino[5,6,7-de]quinazolin-9-yl)-7-fluorobenzo[b]thiophene-3-carbonitrile]
≤ 2000 nM: all assays above

Cc1c(F)c(N)cc(-c2nc3c4c(nc(OC[C@@]56CCCN5C[C@H](F)C6)nc4c2F)N([C@H](C)c2cccnc2N)CCO3)c1C(F)(F)F (single isomer, unassigned) [Compound 765]
≤ 2000 nM: all assays above
